Entries after “also recorded” stand apart in the source; their conditions may differ.
What was measured:
M21 human melanoma cells = assay: Western blotting of signaling in M21 cells; format: cell-based; conditions: 10 ng/ml; for ERK1/2 activation in M21 cells / ErbB3 phosphorylation in M21 cells: 15 min
Protocol: FIG. 9. Effect of the 3KE (175-222) mutation on ErbB3 phosphorylation, ERK1/2 activation, and cyclin D1 levels in M21 human melanoma cells. Cells were cultured in DMEM+1% FBS medium for 24 h, and then treated with 3KE or WT NRG1 (175-222) (10 ng/ml, if concentrations were not indicated) for 15 min (if time is not specified). Cell lysates were analyzed by Western blotting.
(§1) Cell proliferation: cells were starved by culturing DMEM with low-level FCS (e.g., 0.4%) overnight and then treated with the wt or mutant NRG1 (175-222) (up to 100 ng/ml). The cells were harvested in 15 min to 6 h after stimulation and cell lysates analyzed by western blotting with antibodies specific to signaling molecules. Alternatively, cells were cultured for 24-48 h after stimulation for testing proliferation or cell viability by MTS assays. Statistical analysis and calculation of kinetic constants were performed using Prism software (Graphpad).
(§2) Signaling: The levels of cell proliferation were measured by MTS assays and the kinetic data were analyzed by using Prism software (Graphpad). Melanoma cells were cultured in the presence of wt or mutant NRG1 (175-222), and the levels of ErbB2 and B3 phosphorylation, MAP kinase activation, or activation of other signaling molecules in the cell lysates were monitored by immunoprecipitating ErbB2 and B3 from the lysates and detecting tyrosine phosphorylation by western blotting with anti-phosphotyrosine antibodies (the IP-Western method) for ErbB2 and B3. Alternatively, anti-phospho ErbB2 or B3 antibodies (commercially available) and anti-phospho ERK1/2 antibodies were used.

[1] = test system: integrin β3 cytoplasmic domain; assay: Tyr-phosphorylation of integrin β3 cytoplasmic domain in M21 cells, Western blotting; format: cell-based, human; conditions: 10 ng/ml, serum-starved, 30 min
Protocol: FIG. 13. Wt NRG1 (175-222) enhanced Tyr-phosphorylation of the integrin β3 cytoplasmic domain, while 3KE (175-222) suppressed it in M21 cells. Serum-starved M21 cells were stimulated with 10 ng/ml wt or 3KE NRG1 (175-222). Tyr-phosphorylation of β3 was determined by Western blotting of cell lysates.
It has recently been reported that Tyr phosphorylation of the β3 tail plays a role in VEGF and insulin-like growth factor-1 (IGF1) (Clemmons et al. 2007; Mahabeleshwar et al. 2007). It was tested if NRG1 signaling requires Tyr-phosphorylation of the β3 tail in M21 cells. As shown here, the β3 tail is constitutively Tyr-phosphorylated in serum-starved cells.

B16F10 melanoma cells = assay: Western blotting of signaling in B16F10 cells; format: cell-based, mouse; conditions: 10 ng/ml
Protocol: FIG. 11. […] Cells were serum starved and stimulated with 10 ng/ml wt or mutant NRG1 (175-222). Cell lysates were analyzed by western blotting.
as §1, §2

[2] = test system: mock-transfected K562 cells; assay: Cell adhesion assay, mock-transfected K562 cells; format: cell-based, human
Protocol: FIG. 5. […] Adhesion assays was performed using αvβ3-K562 (left) or mock transfected cells (right) as described herein. The data is shown as means+/−SEM of triplicate experiments.
Cell adhesion and soluble integrin binding assays were performed as described previously (Mori, et al., 2008). NRG1α (175-241) was immobilized to wells of 96-well microtiter plate overnight at 4° C. in 0.1 M carbonate buffer, pH 2 9.4. Remaining protein binding sites were blocked by incubating with 200 μl of 0.1% BSA in PBS for 60 min at room temperature. Wells were then incubated with soluble integrin αvβ3 in 50 μl in Hepes-Tyrode's buffer supplemented with 1 mM Mn2+ at room temperature for 60 min. After rinsing the wells with the same buffer, bound integrins were determined by horseradish peroxidase (HRP)-conjugated anti-His tag mouse IgG and substrate 3,3′,5,5′-tetramethylbenzidine of HRP.

[3] = molecular target: T1, Recombinant human ErbB3 Fc chimera (Homo sapiens, UniProt P21860); assay: Competitive binding assay on immobilized ErbB3; conditions: biotin labeled WT 20 nM
T1 construct: Recombinant soluble ErbB3 Fc fusion protein was coated onto well of 96-well microtiter plate; purchased R&D Systems
T1 sequence (P21860 20-643 limits assumed, change not shown): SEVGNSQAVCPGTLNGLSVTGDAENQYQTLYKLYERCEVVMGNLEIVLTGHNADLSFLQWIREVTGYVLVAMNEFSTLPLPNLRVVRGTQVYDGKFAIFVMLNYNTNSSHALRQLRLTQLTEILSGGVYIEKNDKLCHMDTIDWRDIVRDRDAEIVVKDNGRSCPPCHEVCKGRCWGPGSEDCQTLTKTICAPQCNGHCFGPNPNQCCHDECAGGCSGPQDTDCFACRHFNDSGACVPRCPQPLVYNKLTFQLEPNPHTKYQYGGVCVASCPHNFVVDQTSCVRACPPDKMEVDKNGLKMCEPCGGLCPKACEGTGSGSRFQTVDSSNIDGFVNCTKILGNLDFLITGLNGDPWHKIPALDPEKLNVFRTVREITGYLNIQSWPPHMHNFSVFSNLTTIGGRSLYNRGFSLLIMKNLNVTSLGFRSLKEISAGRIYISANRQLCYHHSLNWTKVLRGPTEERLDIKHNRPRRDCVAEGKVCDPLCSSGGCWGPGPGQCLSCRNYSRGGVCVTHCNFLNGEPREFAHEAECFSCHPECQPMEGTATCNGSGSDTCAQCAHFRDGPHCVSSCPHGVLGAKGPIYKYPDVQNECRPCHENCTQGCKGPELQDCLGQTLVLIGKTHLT
Protocol: FIG. 20. The 3KE mutant of NRG1α (175-241) binds to ErbB3. a). Binding of the 3KE mutant of NRG1α (175-241) to recombinant ErbB3. Recombinant soluble ErbB3 Fc fusion protein (R&D system) was coated onto wells of 96-well microtiter plate (1 μg/ml). NRG1α (175-241) WT or 3KE (175-241) mutant was added to the wells and incubated for 1 h at room temperature. GST was used as a control. After washing the wells, bound GST NRG1α (175-241) was determined by using anti-GST antibody HRP conjugate. […] Competitive binding assay. Recombinant soluble ErbB3 Fc fusion protein was coated onto well of 96-well microtiter plate (1 μg/ml). Binding of biotin labeled NRG1α (175-241) WT (20 nM) in the presence of increasing concentrations of NRG1α (175-241) WT, 3KE (175-241) or GST. After washing the wells, bound biotin labeled NRG1α (175-241) WT was determined by using streptavidin HRP conjugate.
GST-fusion WT NRG1α (175-241) was biotinylated by using EZ-Link Sulfo-NHS-LC-Biotin (Pierce) as described in the manufacturer's instructions. Briefly, GST-fusion WT NRG1α (175-241) was incubated with sulfo-NHS-LCBiotin for 1 hour on ice, and remaining free sulfo-NHS-LC-Biotin was quenched with Tris-HCl buffer pH 8.0. Recombinant human ErbB3 Fc chimera (R&D Systems) was immobilized to wells of 96-well microtiter plate at 1 μg/ml coating concentration in 0.1 M NaHCO3, pH9.4 overnight at 4° C., and the remaining protein binding sites were blocked by incubating with 0.1% BSA. Wells were then incubated with biotinylated GST fusion NRG1α (175-241) in the presence of non-labeled GST, GST-WT NRG1α (175-241) or GST-3KE (175-241) for 3 h at room temperature. Bound biotinylated GST-fusion NRG1α (175-241) WT to wells was determined with streptavidin HRP conjugate and HRP substrate at 490 nm.

Molecule | cyclin D1 levels in M21 cells (M21 human melanoma cells) | ERK1/2 activation in M21 cells (M21 human melanoma cells) | ErbB3 phosphorylation in M21 cells (M21 human melanoma cells) | Tyr-phosphorylation of the integrin β3 tail in M21 cells [1] | D1 cyclin levels in B16F10 cells (B16F10 melanoma cells) | ERK1/2 activation in B16F10 cells (B16F10 melanoma cells) | Adhesion of mock-transfected K562 cells to the immobilized protein [2] | ERK1/2 activation in M21 cells (M21 human melanoma cells; listed as Wt NRG1 (175-222)) | AKT activation in B16F10 cells (B16F10 melanoma cells) | Competition for binding of biotinylated WT NRG1α (175-241) to immobilized soluble ErbB3 [3] | Competition for binding of biotinylated WT NRG1α (175-241) to immobilized soluble ErbB3 ([3]; listed as 3KE NRG1α (175-241)) | Competition for binding of biotinylated WT NRG1α (175-241) to immobilized soluble ErbB3 ([3]; listed as 3KE mutant of NRG1α (175-241))
3KE (175-222): NRG1 (175-222) with Lys181/Lys185/Lys187 mutated to Glu; GTSHLVECAEEEETFCVNGGECFMVKDLSNPSRYLCKCQPGFTGARCT (SEQ ID NO:11) (integrin-binding site within human neuregulin, 3KE mutant, short version) | suppressed | did not induce the level of ERK1/2 activation; also recorded: suppressed ERK1/2 activation | did not induced ErbB3 phosphorylation | suppressed it | suppressed D1 cyclin levels very rapidly | did not induce them |  |  |  |  |  | 
wt NRG1 (175-222): wild type human neuregulin 1 fragment, EGF-like domain, residues 175-222 of SEQ ID NO:4 (SEQ ID NO:3) (GTSHLVKCAEKEKTFCVNGGECFMVKDLSNPSRYLCKCQPGFTGARCT; integrin-binding site within human neuregulin 1 EGF-like region and portion of alpha domain, residues 175-222 of human neuregulin 1 alpha) [reference compound] |  | enhanced the level of ERK1/2 activation | induced ErbB3 phosphorylation | enhanced levels of Tyr-phosphorylation |  | induced | did not | induced | induced |  |  | 
WT NRG1α (175-241): wild type human neuregulin 1 fragment, residues 175-241 of SEQ ID NO:4 (SEQ ID NO:5), entire EGF-like motif and α domain (protein, integrin-binding site within human neuregulin, residues 175-241of human neuregulin 1alpha, long version) GTSHLVKCAEKEKTFCVNGGECFMVKDLSNPSRYLCKCQPGFTGARCTENVPMKVQNQEKAEELYQK |  |  |  |  |  |  | did not |  |  | at comparable levels |  | 
3KE (175-241): NRG1α (175-241) with Lys181/Lys185/Lys187 mutated to Glu, SEQ ID NO:6 (3KE, long version) (protein, integrin-binding site within human neuregulin, residues 175-241of human neuregulin 1alpha, long version, 3KE mutant) GTSHLVECAEEEETFCVNGGECFMVKDLSNPSRYLCKCQPGFTGARCTENVPMKVQNQEKAEELYQK |  |  |  |  |  |  |  |  |  |  | at comparable levels | binds to ErbB3 at levels comparable to WT NRG1α (175-241)

Source: patent US20110212108A1, “NEUREGULIN/ERBB SIGNALING AND INTEGRIN” (THE REGENTS OF THE UNIVERSITY OF CALIFORNIA, priority 2008, published 2011)
